Values of other authors, collected in patent publication US20040138296A1, “Amyloid immunization and Cox-2 inhibitors for the treatment of alzheimer's disease” (Pharmacia Corporation, priority 2002, published 2004).

Columns and labels:
[1] = system: microglial and astrocytic activation; conditions: adult rats, Abeta (1-42) into nucleus basalis
[2] = system: glia reaction, iNOS production; conditions: once a day, seven days following the injection
[3] = system: AD patients; conditions: over 300 AD patients
[4] = system: AD patients; conditions: for other adverse effects: metrifonate in Phase III trials
[5] = system: neurons; conditions: Abeta (25-35) and Abeta (1-40)
[6] = system: mild or moderately impaired Alzheimer's disease patients; conditions: 100-150 mg, 6 months
[7] = system: NG108-15 cells; conditions: by inhibition of APP mRNA level

CS(=O)(=O)c1ccc(C2=C(c3ccccc3)C(=O)OC2)cc1 [rofecoxib]
microglial and astrocytic activation [1]: attenuated microglial and astrocytic activation

CS(=O)(=O)Nc1ccc([N+](=O)[O-])cc1Oc1ccccc1 [nimesulide, N-(4-Nitro-2-phenoxy-phenyl)-methanesulfonamide]
astrocytic reaction [2]: no effect on astrocytic reaction
microglia reaction [2]: attenuated microglia reaction
number of iNOS-positive cells [2]: reduced the number of iNOS-positive cells

Cc1c(C)c2c(c(C)c1O)CC[C@@](C)(CCC[C@H](C)CCC[C@H](C)CCCC(C)C)O2 [vitamin E, alpha-tocopherol]
progression of the disease [3]: slow the progression of the disease

CCN(C)C(=O)Oc1cccc([C@H](C)N(C)C)c1 [Rivastigmine]
duration of action ([4]; human, in vivo): 10 h
gastrointestinal side effects ([4]; patients): some gastrointestinal side effects
other adverse effects ([4]; patients): weight loss

CC(C)Cc1ccc(C(C)C(=O)O)cc1 (centres unmarked) [ibuprofen]
astrocytic reaction [2]: no effect on astrocytic reaction
microglia reaction [2]: attenuated microglia reaction
number of iNOS-positive cells [2]: reduced the number of iNOS-positive cells

CCN1CC/C(=C\c2cc(C(C)(C)C)c(O)c(C(C)(C)C)c2)S1(=O)=O [Compound S-2474]
Abeta induced cell death of neurons [5]: significantly prevented

COP(=O)(OC)C(O)C(Cl)(Cl)Cl (centres unmarked) [metrifonate]
other adverse effects ([4]; patients): leg cramps and muscle cramps

Nc1c2c(nc3ccccc13)CCCC2 [Tacrine]
half-life ([4]; cholinesterase inhibitor in AD use): short half-life
hepatotoxicity ([4]; patients): hepatotoxic effects in a number of patients

COc1cc2c(cc1OC)C(=O)C(CC1CCN(Cc3ccccc3)CC1)C2 (centres unmarked) [Donepezil]
AD-associated deterioration ([4]; controlled trials, mild to moderately severe AD patients): can delay AD-associated deterioration
gastrointestinal side effects ([4]; patients): relatively low incidence of gastrointestinal side effects

C#CCN(C)[C@H](C)Cc1ccccc1 [selegeline, Selegiline]
progression of the disease [3]: slow the progression of the disease

COc1ccc2c(c1)c(CC(=O)O)c(C)n2C(=O)c1ccc(Cl)cc1 [indomethacin]
cognitive decline versus placebo [6]: appeared to protect the patients
production of amyloid β-peptide and a secreted form of APP [7]: suppressed production
